Results from patent US5795885A, “Method of inhibiting profileration of cells by administering an aminosterol compound” (priority 1995, dated 1998).

What was measured:
[1] = test system: chick embryo vitelline capillaries; experiment: chick embryo vitelline capillary regression assay; assay type: in vivo; set-up: key to vitelline capillary regression: +: Vascular reactivity; 0: No vascular reactivity; +/-: Equivocal reactivity; details: for vitelline capillary regression: 60 minutes
Method: Using the chick embryo vitelline capillaries assay, compounds were tested for their ability to induce capillary regression. Each compound was applied in 0.1 ml of 15% Ficol 400 and PBS onto the embryo, and vascular regression was assessed after 60 minutes.
The 3-day chick embryo consists of an embryonic disc from which numerous vessels emerge and return, forming a "figure 8"-shaped structure--the embryo in the center with vascular loops extending outward over both poles. […] Following a lag period of around 15 minutes, the constriction of continuity between capillary and secondary vessels, generally on the "venous" side, was observed. Continued pulsatile blood flow progressed, resulting in a "swelling" of the blind tube, followed by a pinching off of the remaining connection and formation of an enclosed vascular sac resembling a "blood island." This process progressed until only the largest vessels remained intact.

mouse IV PK study, HPLC = details: in vivo
Method: To assess clearance, a mouse IV PK study was performed for compound 319 and squalamine. The compound was administered i.v. and blood samples were taken every 10 minutes. The concentration of the administered steroid was determined by HPLC analysis.

B16 melanoma = B16 melanoma growth in C57B mice; assay type: in vivo, mouse
Method: The growth of B16 melanoma in C57B mice is dependent upon neovascularization.
Using the growth of B16 melanoma cells in C57B mice, a recognized model for the evaluation of inhibitors of angiogenesis on the growth of cancers, the effects of subcutaneous, intraperitoneal and oral administration of squalamine were evaluated.
Based on the idea that tumor growth involves both the clonal expansion of a malignant cell along with the development of a supporting vascular supply, a combination of compound 1436 with squalamine was tested to determine whether it would achieve a synergistic effect on solid tumor growth. This concept was evaluated in the B16 melanoma model.
Animals were implanted with B16 melanoma followed by treatment with compound 1436 or 1256 administered in a combined schedule or separately. […] Thus, a combination of these two compounds achieves a therapeutic benefit in tumors dependent on neovascularization that may prevent metastatic spread.

[2] = test system: stage 59-60 Xenopus tadpoles; details: for tadpole tail capillary occlusion: squalamine at 10 μg/ml
[3] = test system: human coronary artery smooth muscle; experiment: proliferation of human coronary artery smooth muscle in vitro; assay type: cell-based
Source text: Aminosterols of the invention may also have utility in inhibiting the growth factor mediated proliferation of smooth muscle within the artery. Following coronary angioplasty, reocclusion commonly occurs, secondary to reparative proliferation of the vascular smooth muscle within the wall of the surgically manipulated blood vessel. This process generally takes place over the course of 7-10 days. To evaluate whether an agent could prevent the growth factor mediated proliferation of smooth muscle within the artery, compound 1436 was evaluated in vitro for its effect on the proliferation of human coronary artery smooth muscle. Results for compound 1436 are shown in FIG. 13, and those for squalamine are shown in FIG. 14, with FIG. 15 being a composite logarithmic plot.

Lewis lung carcinoma = experiment: growth inhibition / cytotoxicity in vitro; assay type: cell-based; details: 10 μg/ml
Source text: (§1) As set forth in Table 7 below, all malignant tumors evaluated in tissue culture, endothelial cells and vascular smooth muscle cells were sensitive to inhibition. Thus, compound 1436 has application in the control of growth factor dependent proliferation of many types of tissue.

Murine B16 melanoma = experiment: growth inhibition in vitro; assay type: cell-based; details: 10 μg/ml
Source text: as §1

[4] = test system: PHA-stimulated human lymphocytes; experiment: inhibition of mitogen (PHA)-stimulated growth of human T-cells; assay type: cell-based; details: Homo sapiens, Lymphocyte, read-out: inhibition of PHA-stimulated human lymphocytes (% control)
Source text: Results are tabulated below.

[5] = test system: heart of a juvenile Xenopus laevis frog; experiment: ex vivo beating of isolated frog heart; details: 10 μg/ml; Krebs-Ringer with adrenaline 50 μg/ml; about one hour without compound
Method: To determine if compound 1436 has such utility, the following experiment was performed. The heart of a juvenile Xenopus laevis frog was dissected from the living animal. The heart was placed into a Petri dish containing Krebs-Ringer buffer with adrenaline 50 μg/ml, and examined with the naked eye. At room temperature, the heart continued beating in a coordinated fashion (atrial beat followed by ventricular beat) for about one hour. In the presence of 10 μg/ml of compound 1436, spontaneous beating persisted up to 24 hours.

rabbit NHE3 = rabbit NHE3 (Oryctolagus cuniculus, UniProt P26432); details: 10 μg/ml; acid preloaded by 40 mM NH4Cl
Sequence of rabbit NHE3 (P26432 30-832): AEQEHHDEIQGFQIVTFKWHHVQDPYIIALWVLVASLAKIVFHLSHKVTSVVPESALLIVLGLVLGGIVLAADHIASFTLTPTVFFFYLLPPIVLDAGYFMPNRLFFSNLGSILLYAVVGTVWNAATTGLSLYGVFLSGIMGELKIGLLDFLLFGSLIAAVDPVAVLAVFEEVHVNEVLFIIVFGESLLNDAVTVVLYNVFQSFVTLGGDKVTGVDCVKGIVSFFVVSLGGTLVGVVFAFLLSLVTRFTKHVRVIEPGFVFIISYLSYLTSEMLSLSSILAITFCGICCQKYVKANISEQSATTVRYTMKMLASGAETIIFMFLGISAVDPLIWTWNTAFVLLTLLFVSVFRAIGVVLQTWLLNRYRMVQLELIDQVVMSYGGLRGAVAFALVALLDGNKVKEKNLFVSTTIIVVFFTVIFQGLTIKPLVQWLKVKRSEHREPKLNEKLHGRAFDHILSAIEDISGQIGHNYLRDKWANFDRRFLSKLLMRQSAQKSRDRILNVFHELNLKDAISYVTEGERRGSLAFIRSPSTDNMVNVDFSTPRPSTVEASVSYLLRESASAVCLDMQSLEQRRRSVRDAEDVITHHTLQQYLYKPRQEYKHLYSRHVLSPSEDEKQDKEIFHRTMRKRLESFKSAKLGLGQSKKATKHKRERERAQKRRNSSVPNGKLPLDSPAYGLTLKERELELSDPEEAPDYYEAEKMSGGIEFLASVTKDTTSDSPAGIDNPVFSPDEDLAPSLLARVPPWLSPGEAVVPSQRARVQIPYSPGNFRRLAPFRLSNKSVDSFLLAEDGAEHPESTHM
Method: Internal pH was measured either following acid loading or in the absence of an acid-loading challenge, with the results shown in FIGS. 1A and 1B.
Specifically, PS120 fibroblasts transfected with rabbit NHE3 were grown in supplemented Dulbecco's-modified Eagle's medium as described by Levine et al., J. Biol. Chem. 268, 1993, 25527-25535. […] For cells not acid-preloaded, the actual internal pH value was monitored as a function of time following addition of squalamine, with the results depicted in FIG. 1B.
PS120 fibroblasts transfected with rabbit NHE3 were grown and acid preloaded by exposure to 40 mM NH4 Cl as described above in conjunction with FIGS. 1A and 1B. Internal cellular pH changes expressed as the rate of pH recovery as a function of restored extracellular sodium ion concentration following exposure to 10 μg/ml of the compound were assayed with the fluorescent dye BCECF-AM as described above.

[6] = test system: Human ovarian carcinoma SKOV3; experiment: growth inhibition in vitro (Baker et al.); assay type: cell-based; details: 10 μg/ml
Method: as §1
Using the assay described above, the anticancer effects of compound 1437 against several cancer lines was assessed.

[7] = test system: L1210 lymphoblastic leukemia; experiment: mouse model of L1210 leukemia; assay type: in vivo, C57B mice
[8] = growth and weight gain in growing mice; assay type: in vivo, C57B mice
Method: Animals were dosed QTD (i.p.) starting on Day 1. […] Animals receiving 5 mg/kg QTD experienced about a 50% reduction in growth, compared to untreated controls, while animals receiving 1 mg/kg QTD were affected by about 10%. […] They appeared very much like hypophysectamized animals might appear.

arterial pressure = arterial pressure in the rat after i.v. administration; assay type: in vivo
Method: A 200-g rat was catheterized in the right carotid artery, and the compound was introduced over a ten-second period to a total dosage of 5 mg/kg. Within 30 seconds, the mean arterial pressure had fallen from about 100 mm Hg to about 70 mm Hg, with a marked reduction in pulse pressure from about 40 mm to about 10 mm. […] If cardiac output was basically unaffected, reduction in blood pressure would have resulted principally from a reduction in system resistance.
At that time, 40 μg of noradrenaline was introduced.

fasting blood glucose = fasting blood glucose in mice; assay type: in vivo, Male CD-1 mice; details: intravenous
Method: To study the effect of steroid administrator or the NHE responsible for secretion of insulin, several of the aminosterols from shark liver were administered to fasting mice. Male CD-1 mice were assigned to one of four treatment groups. Whole blood glucose was tested using glucometer (Lifescan Glucometer II and One Touch test strips). Statistical analysis was via one-way analysis of variance (ANOVA) followed by subsequent Bonferonni's t-test.

[9] = test system: bovine pulmonary endothelial cells; experiment: growth inhibition in vitro (Baker et al.); assay type: cell-based; details: 10 μg/ml
Source text: as §1

Murine L1210 leukemia = experiment: growth inhibition in vitro (Baker et al.); assay type: cell-based; details: 10 μg/ml
Source text: as §1

Human melanoma WM 1617 = experiment: growth inhibition in vitro (Baker et al.); assay type: cell-based; details: 10 μg/ml
Source text: as §1

[10] = test system: Human colon carcinoma SW948; experiment: growth inhibition in vitro (Baker et al.); assay type: cell-based; details: 10 μg/ml
Source text: as §1

[11] = test system: Human coronary artery smooth muscle cells; experiment: growth inhibition in vitro (Baker et al.); assay type: cell-based; details: 10 μg/ml
Source text: as §1

[12] = test system: Human colon carcinoma HT29; experiment: growth inhibition in vitro (Baker et al.); assay type: cell-based; details: 10 μg/ml
Source text: as §1

[13] = test system: Human microvascular endothelial cells; experiment: growth inhibition in vitro (Baker et al.); assay type: cell-based; details: 10 μg/ml
Source text: as §1

[14] = test system: human umbilical venous endothelial cells; experiment: growth inhibition in vitro (Baker et al.); assay type: cell-based; details: 10 μg/ml
Source text: as §1

SMILES: C[C@H](CCC(=O)O)[C@H]1CC[C@H]2[C@@H]3CC[C@H]4C[C@@H](NCCCNCCCCN)CC[C@]4(C)[C@H]3CC[C@]12C [Compound 319]
- vitelline capillary regression ([1]; 0.001 μg applied): +/-
- vitelline capillary regression ([1]; 0.01 μg applied): +
- vitelline capillary regression ([1]; 0.1 μg applied): +
- vitelline capillary regression ([1]; 1 μg applied): +
- vitelline capillary regression ([1]; 10 μg applied): +
- activity in vitelline capillary regression assay (in words) ([1]; in vivo): especially active
- pharmacokinetic clearance compared with squalamine (mouse IV PK study, HPLC): more rapid pharmacokinetic clearance than squalamine
- control of B16 melanoma (B16 melanoma; subcutaneous administration (FIG. 6)): control of B16 in C57B mice to an extent almost comparable to squalamine
- tadpole tail capillary occlusion [2]: common vascular occlusive effect

SMILES: CC(C)[C@@H](CC[C@@H](C)[C@H]1CC[C@H]2[C@@H]3[C@H](O)C[C@H]4C[C@@H](NCCCNCCCCNCCCN)CC[C@]4(C)[C@H]3CC[C@]12C)OS(=O)(=O)O [Compound 1436]
- vitelline capillary regression ([1]; 0.001 μg applied): +/-
- vitelline capillary regression ([1]; 0.01 μg applied): +
- vitelline capillary regression ([1]; 0.1 μg applied): +
- vitelline capillary regression ([1]; 1 μg applied): +
- vitelline capillary regression ([1]; 10 μg applied): +
- effect on chick embryo vitelline capillaries (in words) ([1]; in vivo): causes vitelline capillary regression with about the same potency as squalamine
- suppression of growth (in words) ([3]; FIG. 15): suppress in vitro the growth of human coronary artery smooth muscle
- viability ([3]; about 11 μg/ml): without loss of viability
- cancer cells inhibited in vitro (Lewis lung carcinoma): INHIBITED
- cancer cells inhibited in vitro (Murine B16 melanoma): INHIBITED
- inhibition at 1 µg/mL ([4]; 1 μg/ml): 20%
- inhibition at 5 µg/mL ([4]; 5 μg/ml): 50%
- inhibition at 10 µg/mL ([4]; 10 μg/ml): 80%
- persistence of spontaneous beating of isolated heart [5]: up to 24 hours
- inhibition of rabbit NHE3 (rabbit NHE3): found to inhibit rabbit NHE3
- impact on tumor volume (B16 melanoma; compound 1436 alone 10 mg/kg/every 3 days): no significant impact on tumor volume
- tumor growth, single agent (B16 melanoma; squalamine 15 mg/kg/day, compound 1436 alone in a tolerable schedule): Neither administration of squalamine at 15 mg/kg/day nor compound 1436 alone in a tolerable schedule could achieve this effect
- cancer cells inhibited in vitro [6]: INHIBITED
- survival ([7]; highest dose (10 mg/kg every 3 days i.p.)): significant prolongation of life
- granulocyte count ([7]; mouse, in vivo): robust granulocyte count
- hematocrit ([7]; mouse, in vivo): near normal hematocrit
- reduction in growth of mice ([8]; 1 mg/kg QTD i.p.): about 10%
- suppression of growth of mice ([8]; 10 mg/kg QTD i.p., about 1 month): growth was almost completely inhibited
- health of treated animals ([8]; mouse, in vivo): all were active, normally proportioned, not-cachectic, and in excellent apparent clinical health
- reversibility of effect (arterial pressure; 40 μg noradrenaline at 30 minutes): readily reversible
- duration of effect on arterial pressure (arterial pressure; 5 mg/kg i.v.): followed for 30 minutes, without significant change
- heart rate (arterial pressure; 5 mg/kg i.v.): no significant increase in heart rate was observed
- time to fall in arterial pressure (arterial pressure; 5 mg/kg i.v.): ≤ 30 s
- pulse pressure after dosing (arterial pressure; 5 mg/kg i.v., from about 40 mm): about 10 mm
- mean arterial pressure after dosing (arterial pressure; 5 mg/kg i.v., from about 100 mm Hg): about 70 mm Hg
- hyperglycemia (fasting blood glucose): caused hyperglycemia in mice
- non-transformed cells inhibited in vitro [9]: INHIBITED
- cancer cells inhibited in vitro (Murine L1210 leukemia): INHIBITED
- cancer cells inhibited in vitro (Human melanoma WM 1617): INHIBITED
- cancer cells inhibited in vitro [10]: INHIBITED
- non-transformed cells inhibited in vitro [11]: INHIBITED
- cancer cells inhibited in vitro [12]: INHIBITED
- non-transformed cells inhibited in vitro [13]: INHIBITED
- non-transformed cells inhibited in vitro [14]: INHIBITED
- time to death of tadpole ([2]; in vivo): about 2 hours
- tadpole tail capillary occlusion [2]: common vascular occlusive effect
